Test results taken from patent US11453695B2, “Nucleoside analogues and methods of use thereof” (priority 2016, dated 2022).
Where two headings read alike, the source gives them in different places.

What was measured:
pancreatic cancer cells = details: background, reported; cited from earlier work
Panc-1 (pancreas) cells = test: Growth inhibition in cancer cell lines (FIG. 5); format: cell-based, human; details: KRAS mutation
Excerpt: Molecules such as LCB-2151 and LCB-2132 (Group B) and LCB-2179 (Group C) indeed show antiproliferative activities against cancer cell lines with KRAS mutations. FIG. 5 presents the activity of LCB-2151, LCB-2179, LCB-2132 and Gemcitabine in different cancer cell lines. Most liver and pancreas cell lines have the KRAS protein (oncogene identified in Kiersten rat sarcoma virus), which alters its signal transduction pathway, are resistant to Gemcitabine. […] Both HepG-2 (liver) and Panc-1 (pancreas) have the KRAS mutation and are resistant to Gemcitabine.
(§1) Cells were plated in 96 well plates at a density of 10^4 cells/well and grown for 24 h. Cells were treated with different concentrations of the test compounds or vehicle alone (DMSO) and grown at 37° C. under a humidified 5% CO2 atmosphere. Their corresponding medium was used to dilute the 10 mM stocks of each compound to obtain 1 mM stock solutions and subsequently, the treatment concentrations. After 96 hours of incubation, the plates were equilibrated at room temperature for 30 minutes, […] of Cell Titer Glo® Luminometric Cell Viability Assay reagent (Promega) was added into each well, put on an orbital shaker for 2 minutes and incubated for 10 minutes at room temperature. The plate was transferred to a luminometer (Glomax Promega) and the luminescent signal was recorded. Each treatment at different concentration and the control group were triplicates or duplicates.

[1] = test system: HepG2 (liver human hepatocellular carcinoma) cell line; test: Cell viability assay (Cell Titer Glo), growth inhibition; format: cell-based
Description: (§2) Growth inhibition of the compound comprises in the invention was tested in vitro using human cancer cell cultures
(§3) HepG2 (liver human hepatocellular carcinoma), BxPC3 and Capan-2 (adenocarcinomas), A549 (lung carcinoma), HCT-116 (colorectal carcinoma) and MCF-7 (breast tumor) cell lines were obtained from ATCC. The HepG2, BxPC3, Capan-2 and MCF-7 cells were placed into 75 ccm^3 tissue culture flasks and grown at 37° C. under a humidified 5% CO2 atmosphere in EMEM and RPMI-1640 medium respectively with 10% fetal bovine serum and 2% penicillin-streptomycin. Trypsin (0.05%) was used to detach cells from the bottom of flask.
as §1
(§4) This is a homogeneous method to determine the number of viable cells in culture based on quantification of the ATP present which signals the presence of metabolically active cells.

[2] = test system: BxPC3 (pancreas adenocarcinoma) cell line; test: as above; format: cell-based, human
Description: as §2, §3, §1, §4

[3] = test system: Capan-2 (pancreas adenocarcinoma) cell line; test: as above; format: cell-based, human
Description: as §2, §3, §1, §4

[4] = test system: MCF-7 (breast tumor) cell line; test: as above; format: cell-based; details: Homo sapiens, MCF7, 96 hours of incubation
Description: as §2, §3, §1, §4

[5] = test system: HCT-116 (colorectal carcinoma) cell line; test: as above; format: cell-based; details: Homo sapiens, 96 hours of incubation, read-out: Growth Inhibition (%) At 20 μM, HCT-116 (Colon)
Description: as §2, §3, §1, §4

[6] = test system: A549 (lung carcinoma) cell line; test: as above; format: cell-based; details: Homo sapiens, 96 hours of incubation
Description: as §2, §3, §1, §4

[7] = test system: KRAS mutated human pancreatic and liver cancer cell lines (HepG-2, Panc-1, Capan-2); test: Activity in KRAS mutated, Gemcitabine-resistant cancer cell lines; format: cell-based
Description: Liver and pancreatic cancer patients have an extremely poor survival rate (Table 1).
as §1

[8] = Cell toxicity in the HCMV assay (Cellglo, luminescence); format: cell-based, human; details: human, human fibroblast cell lines (HFF); HFF cells
Description: (§5) Table 4 presents results for Human cytomegalovirus (HCMV), which causes serious diseases in immune compromised hosts, particularly for transplantation recipient. Cytopathic effect (CPE) of A1-169 HMCV variant virus was measured using Human fibroblast cell lines (HFF). Cell titer were measured using Cellglo assay and luminescence in presence or absence of group A of molecules. […] 90% reduction of viral load was attained at 0.25 μM and no cell death was measured in presence of 150 μM of the tested compound, testifying of its lack of intrinsic cell toxicity. Ganciclovir the clinical gold standard in the treatment of HCMV has bee reported as active against the same strand at 1 to 3 μM.

[9] = test system: Human fibroblast cell lines (HFF); test: as above; format: cell-based; details: 150 μM; HFF cells
Description: as §5

HCMV/AD169 = test: Antiviral effect, cytopathic effect (CPE) of HCMV in HFF cells; format: cell-based, Human cytomegalovirus (HCMV)
Description: as §5

[10] = BXPC3 (pancreas), KRAS wild type
[11] = Homo sapiens, HepG2, 96 h, read-out: Growth Inhibition (%) At 20 μM, HepG2 (Liver)
[12] = Homo sapiens, BXPC-3, 96 h, read-out: Growth Inhibition (%) At 20 μM, BxPC3 (Pancreas)
[13] = Homo sapiens, Capan-2, 96 h, read-out: Growth Inhibition (%) At 20 μM, Capan-2 (Pancreas)
[14] = Homo sapiens, HepG2; read-out: IC50 (μM), HepG2 (Liver), antiproliferative activity
[15] = Homo sapiens, BXPC-3; read-out: IC50 (μM), BxPC3 (Pancreas), antiproliferative activity
[16] = Homo sapiens, Capan-2; read-out: IC50 (μM), Capan-2 (Pancreas), antiproliferative activity

| Compound | inhibition at 20 µM [4] | inhibition at 20 µM [1, 11] | inhibition at 20 µM [5] | inhibition at 20 µM [2, 12] | inhibition at 20 µM [3, 13] | inhibition at 20 µM [6] | also measured |
| --- | --- | --- | --- | --- | --- | --- | --- |
| CCCCCCCC(=O)Nc1ccn([C@@H]2O[C@H](CO)[C@@H](O)C2(F)F)c(=O)n1 | – | – | – | – | – | – | EC50 (pancreatic cancer cells): 100 µM |
| Nc1ccn([C@@H]2O[C@H](CO)[C@@H](O)C2(F)F)c(=O)n1 [Gemcitabine, reference compound] | – | – | – | – | – | – | plateau of inhibition (FIG. 5) (Panc-1 (pancreas) cells; second of the two plateaus named): 30%; plateau of inhibition (FIG. 5) ([1]; HepG-2 (liver), KRAS mutation; first of the two plateaus named): 50%; growth inhibition (FIG. 5), in words [2, 10]: growth is blocked; growth inhibition (FIG. 5), in words ([3]; Capan-2): no growth inhibition |
| CC(C)OC(=O)[C@H](C)NP(=O)(OC[C@H]1O[C@@H](n2cnc3c(NCc4ccccc4)nc(Cl)nc32)[C@H](F)C1(C)COP(=O)(N[C@@H](C)C(=O)OC(C)C)Oc1ccccc1)Oc1ccccc1 (some centres unmarked) [LCB2076] | 69% | 0% | 10% | 25% | 14% | – | – |
| COc1nc(Cl)nc2c1ncn2[C@@H]1O[C@H](COP(=O)(N[C@@H](C)C(=O)OC(C)C)Oc2ccccc2)C(C)(COP(=O)(N[C@@H](C)C(=O)OC(C)C)Oc2ccccc2)[C@H]1F (some centres unmarked) [LCB2079] | 96% | 72% | 51% | 40% | 50% | 70% | inhibition at 50 µM ([4]; 50 μM): > 96% |
| CC(C)OC(=O)[C@H](C)NP(=O)(OC[C@H]1O[C@@H](n2cnc3c(N)nc(Cl)nc32)[C@H](F)C1(C)COP(=O)(N[C@@H](C)C(=O)OC(C)C)Oc1ccccc1)Oc1ccccc1 (some centres unmarked) [LCB2080] | 79% | 0% | 40% | 16% | 58% | 34% | – |
| CC(C)OC(=O)[C@H](C)NP(=O)(OC[C@H]1O[C@@H](n2cnc3c(N)ncnc32)C(F)(F)C1(C)COP(=O)(N[C@@H](C)C(=O)OC(C)C)Oc1ccccc1)Oc1ccccc1 (some centres unmarked) [LCB2092] | 54% | 16% | 60% | 62% | 48% | 25% | – |
| CC(C)OC(=O)[C@H](C)NP(=O)(OC[C@H]1O[C@@H](n2cnc3c(N)ncnc32)C(F)(F)C1(C)CO)Oc1ccccc1 (some centres unmarked) [LCB2093] | 14% | 6% | 28% | 6% | 22% | 0% | – |
| CC(C)OC(=O)[C@H](C)NP(=O)(OC[C@H]1O[C@@H](n2cnc3c(NCc4ccccc4)ncnc32)C(F)(F)C1(C)COP(=O)(N[C@@H](C)C(=O)OC(C)C)Oc1ccccc1)Oc1ccccc1 (some centres unmarked) [LCB2095] | 49% | 0% | 31% | 67% | 46% | 3% | – |
| CC(C)OC(=O)[C@H](C)NP(=O)(OC[C@H]1O[C@@H](n2cnc3c(N)nc(Cl)nc32)C(F)(F)C1(C)COP(=O)(N[C@@H](C)C(=O)OC(C)C)Oc1ccccc1)Oc1ccccc1 (some centres unmarked) [LCB2105] | – | – | 53% | 47% | 48% | – | – |
| CC(C)(CCC(CCSCc1ccc(C(F)(F)F)cc1)SCc1ccc(C(F)(F)F)cc1)CC(=O)Nc1ccn([C@H]2CC(O)[C@@H](CO)O2)c(=O)n1 (some centres unmarked) [LCB-2132] | – | – | – | – | – | – | EC90 activity against KRAS mutated cancer cell lines resistant to Gemcitabine [7]: show EC90 activity |
| CC(C)(CCC(CCSCc1ccc(C(F)(F)F)cc1)SCc1ccc(C(F)(F)F)cc1)CC(=O)Nc1ccn([C@@H]2O[C@H](CO)[C@@](C)(CO)C2(F)F)c(=O)n1 (stereo partly drawn) [LCB-2139, N-(1-((2R,4R,5S)-3,3-difluoro-4,5-bis(hydroxymethyl)-4-methyltetrahydrofuran-2-yl)-2-oxo-1,2-dihydropyrimidin-4-yl)-3,3-dimethyl-6,8-bis((4-(trifluoromethyl)benzyl)thio)octanamide] | – | – | – | – | – | – | IC50 [1, 14]: 8 µM; IC50 [2, 15]: 8 µM; IC50 [3, 16]: 8 µM |
| CC(C)(CCC(CCSCc1ccc(F)cc1)SCc1ccc(F)cc1)CC(=O)Nc1ccn([C@@H]2O[C@H](CO)[C@@](C)(CO)C2(F)F)c(=O)n1 (stereo partly drawn) [LCB-2140, N-(1-((2R,4R,5S)-3,3-difluoro-4,5-bis(hydroxymethyl)-4-methyltetrahydrofuran-2-yl)-2-oxo-1,2-dihydropyrimidin-4-yl)-6,8-bis((4-fluorobenzyl)thio)-3,3-dimethyloctanamide] | – | – | – | – | – | – | IC50 [1, 14]: 8 µM; IC50 [2, 15]: 8 µM; IC50 [3, 16]: 12.5 µM |
| CC(C)(CC[C@H](CCSCc1ccc(C(F)(F)F)cc1)SCc1ccc(C(F)(F)F)cc1)CC(=O)Nc1ccn([C@@H]2O[C@H](CO)[C@@](C)(CO)C2(F)F)c(=O)n1 [LCB-2151, (R)—N-(1-((2R,4R,5S)-3,3-difluoro-4,5-bis(hydroxymethyl)-4-methyltetrahydrofuran-2-yl)-2-oxo-1,2-dihydropyrimidin-4-yl)-3,3-dimethyl-6,8-bis((4-(trifluoromethyl)benzyl)thio) octanamide] | – | – | – | – | – | – | growth inhibition (FIG. 5), in words (Panc-1 (pancreas) cells): block completely the growth; growth inhibition (FIG. 5), in words ([1]; HepG-2 (liver), KRAS mutation): block completely the growth; IC50 [1, 14]: 8 µM; growth inhibition (FIG. 5), in words [2, 10]: block completely the growth; IC50 [2, 15]: 5 µM; growth inhibition (FIG. 5), in words ([3]; Capan-2): block completely the growth; IC50 [3, 16]: 8 µM; EC90 activity against KRAS mutated cancer cell lines resistant to Gemcitabine [7]: show EC90 activity |
| CC(C)OC(=O)[C@H](C)NP(=O)(OC[C@H]1O[C@@H](n2ccc(NC(=O)CC(C)(C)CC[C@H](CCSCc3ccc(C(F)(F)F)cc3)SCc3ccc(C(F)(F)F)cc3)nc2=O)[C@](C)(CO)[C@@H]1O)Oc1ccccc1 (stereo partly drawn) [LCB-2179, Isopropyl ((((2R,3S,4R,5R)-5-(4-(3,3-dimethyl-6,8-bis((4-(trifluoromethyl)benzyl)thio)octanamido)-2-oxopyrimidin-1(2H)-yl)-3-hydroxy-4-(hydroxymethyl)-4-methyltetrahydrofuran-2-yl)methoxy)(phenoxy)phosphoryl)-L-alaninate] | – | – | – | – | – | – | growth inhibition (FIG. 5), in words (Panc-1 (pancreas) cells): block completely the growth; growth inhibition (FIG. 5), in words ([1]; HepG-2 (liver), KRAS mutation): block completely the growth; IC50 ([1]; Homo sapiens, HepG2, read-out: IC50 (μM), HepG2 (Liver), antiproliferative activity): 15 µM; growth inhibition (FIG. 5), in words [2, 10]: block completely the growth; IC50 ([2]; Homo sapiens, BXPC-3, read-out: IC50 (μM), BxPC3 (Pancreas), antiproliferative activity): 7 µM; growth inhibition (FIG. 5), in words ([3]; Capan-2): block completely the growth; IC50 ([3]; Homo sapiens, Capan-2, read-out: IC50 (μM), Capan-2 (Pancreas), antiproliferative activity): 15 µM; EC90 activity against KRAS mutated cancer cell lines resistant to Gemcitabine [7]: show EC90 activity |
| CC(C)OC(=O)[C@H](C)NP(=O)(OC[C@H]1O[C@@H](n2ccc(N)nc2=O)[C@H](F)C1(C)CO)Oc1ccccc1 (some centres unmarked) [LCB-2187] | – | – | – | – | – | – | CC50 [8]: > 150 µM; cell death in presence of the tested compound [9]: no cell death; EC50 (HCMV/AD169; Human betaherpesvirus 5, AD169, HFF, read-out: EC50 (μM), antiviral effect): < 0.05 µM; EC90 (HCMV/AD169; Human betaherpesvirus 5, HCMV/AD169 in HFF cells): 0.25 µM |
